The results in this text go back to article PMC7155171, “Probing the Open Global Health Chemical Diversity Library for Multistage-Active Starting Points for Next-Generation Antimalarials” (ACS Infectious Diseases, 2020).

Where two headings read alike, the source gives them in different places.

Broadly, the IC50 is the concentration needed to halve the response being measured.

In assay [1] the target is recombinant firefly luciferase (Photinus pyralis, UniProt P08659). The experiment in a line: biochemical. As to conditions: read-out: rLuc IC50.
Sequence of recombinant firefly luciferase (P08659 whole entry): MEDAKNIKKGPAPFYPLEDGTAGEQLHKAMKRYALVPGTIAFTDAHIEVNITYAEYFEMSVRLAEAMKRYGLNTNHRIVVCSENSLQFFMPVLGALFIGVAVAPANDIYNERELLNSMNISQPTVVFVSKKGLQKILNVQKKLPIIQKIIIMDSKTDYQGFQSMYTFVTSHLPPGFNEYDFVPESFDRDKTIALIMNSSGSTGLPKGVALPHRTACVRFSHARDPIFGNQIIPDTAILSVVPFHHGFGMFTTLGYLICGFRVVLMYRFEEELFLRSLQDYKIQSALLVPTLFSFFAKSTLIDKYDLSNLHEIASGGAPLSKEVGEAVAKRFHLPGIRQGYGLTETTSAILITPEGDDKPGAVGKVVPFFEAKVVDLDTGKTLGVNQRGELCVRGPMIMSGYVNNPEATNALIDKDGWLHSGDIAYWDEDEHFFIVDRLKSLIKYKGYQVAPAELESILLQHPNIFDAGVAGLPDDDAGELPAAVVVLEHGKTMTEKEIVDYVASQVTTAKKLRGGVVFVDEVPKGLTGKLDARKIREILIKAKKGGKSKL
In assay [2] the test system is HepG2-A16-CD81 hepatocytes. The experiment in a line: HepG2 cytotoxicity screening (CellTiter-Glo). As to conditions: HepG2-A16-CD81, read-out: HepG2 tox IC50.
The test system of assay [3] is P. vivax patient isolates, exoerythrocytic forms (schizonts and hypnozoites). The experiment in a line: P. vivax liver stage assay in HC04 cells (immunofluorescence). Particulars: HC04 cells treated 24 h before sporozoites, nanomolar concentrations, counted day 7.
The test system of assay [4] is P. berghei liver stage (PbLuc). The experiment in a line: P. berghei luciferase liver stage (PbLuc) assay in HepG2-A16-CD81 hepatocytes. It counts as cell-based, Plasmodium berghei. Particulars: 48 h liver stage, HepG2-A16-CD81; for IC50: Plasmodium berghei, HepG2-A16-CD81, 48 h, read-out: Pbluc (EEF) IC50.
Assay [5] deals with P. falciparum Dd2 (PfLuc) line expressing firefly luciferase, asexual blood stage. The experiment in a line: microbe, parasite or virus in culture. Particulars: for IC50 / Emax: Plasmodium falciparum. The assay is classed as cell-based, Plasmodium falciparum.
Assay [6] concerns P. berghei-GFP (PbGFP) liver stage. The experiment in a line: P. berghei-GFP liver stage high content imaging in Huh7.5.1 hepatocytes. It counts as cell-based. Particulars: Plasmodium berghei, Huh-7.5.1, 48 h, read-out: liver stage high content imaging assay IC50. As to the method:
For the fluorescent liver stage validation, roughly 2500 P. berghei-GFP (PbGFP) sporozoites[76] were dissected from mosquitoes provided by the NYU Insectary Core Facility and seeded onto a lawn of 5000 Huh7.5.1 hepatocytes in 384-well plates. These assay plates were pretreated with DDD01061024 in 8-point dose response (10–4.57 × 10^–3 μM), with atovaquone (0.5–3.91 × 10^–3 μM) and DMSO (0.5%) as positive and negative controls, respectively. Unlike our standard HepG2 cell line, these Huh7.5.1 cells lack GFP expression, making it preferable for these experiments. After a 48 h incubation in the presence of our test compounds, the presence of GFP positive infected cells were imaged and counted using the Operetta High-content Imaging System (PerkinElmer).
(§1) Figure S3. DDD01061024 is a cytochrome bc1 inhibitor.
The dual stage inhibitor, DDD01061024, is shown occupying the Q0 site (residues outlined in orange) of a Pf Cyt Bc1 homology model (from PDB: 1BE3) (a). […] Dose dependent inhibition was determined using a metabolic endpoint (LDH) before normalizing to controls (n=2). Measuring the percentage of PbGFP infected hepatocytes using a high content imaging system validates the liver-stage potency of DDD01061024 in a fluorescence-based model (d). Infected hepatocytes were counted using luminescence-independent high content imaging in treated wells and normalized to controls over two replicates. […]

For assay [7], the system named is P. falciparum asexual blood stage (wild-type and DDD01061024-resistant Dd2-B2 clones). The experiment in a line: Lactate dehydrogenase (LDH) asexual blood stage assay. The assay is classed as cell-based, Plasmodium falciparum. Particulars: for IC50: Plasmodium falciparum.
From the text: Mutations within this site, and indeed at our V259L residue, were previously reported using other known cytochrome b inhibitors including ELQ400[49] and RYL-552.[50]
as §1
The dual stage inhibitor, DDD01061024, is shown occupying the Q0 site (residues outlined in orange) of a Pf Cyt Bc1 homology model (from PDB: 1BE3) (a). A local V259L substitution (red) in mutant clones may destabilize the interactions within this pocket, helping resistant clones tolerate higher doses of the inhibitor (b). DDD01061024-resistannt mutants show cross-resistance to atovaquone (c), another multistage active antimalarial which targets the Q0 binding site. Dose dependent inhibition was determined using a metabolic endpoint (LDH) before normalizing to controls (n=2). Measuring the percentage of PbGFP infected hepatocytes using a high content imaging system validates the liver-stage potency of DDD01061024 in a fluorescence-based model (d). Infected hepatocytes were counted using luminescence-independent high content imaging in treated wells and normalized to controls over two replicates.
(1 picture or pasted object on this page, not shown here)

A further assay concerns P. falciparum Dd2. Briefly: SYBR green I asexual blood stage proliferation assay (96 h). It counts as cell-based, Plasmodium falciparum. As to conditions: Plasmodium falciparum.

For `Cc1cc(NC(=O)C(C)C)n(-c2nc(C)c(C)c(=O)[nH]2)n1` [DDD01027481], the values for the IC50 in assay [1], in assay [2] and in assay [4] were over 50000 nM, over 25000 nM and 138 nM, respectively. Also, the “P. vivax hypnozoites or schizonts after treatment” value in assay [3] was “no detectable hypnozoites or schizonts”.

For `CCc1c(C)nc(-n2nc(C3CC3)cc2NC(C)=O)[nH]c1=O` [DDD01027733], the IC50 in assay [1] is over 50000 nM; in assay [2], over 25000 nM; in assay [4], 96 nM. In addition, the “P. vivax hypnozoites or schizonts after treatment” value in assay [3] is reported as “no detectable hypnozoites or schizonts”.

Turning to `Cc1ccc(-c2ccc(C3CNCCO3)nc2)cc1` (stereo not shown) [DDD01061024], the IC50 in assay [1] is 3.2 nM; in assay [5] (DD2, read-out: CDD P. falciparum Luciferase ABS 11-pt Reconfirmation Dose Response (48hr): IC50 (μM), 11-pt dose response, 48hr), 0.533 µM; in assay [5] (DD2, 8-pt dose response, 96hr, read-out: CDD P. falciparum Luciferase ABS 8-pt Reconfirmation Dose Response (96hr): IC50), 0.2 µM; in assay [5] (DD2, 11-pt dose response, 96hr, read-out: CDD P. falciparum Luciferase ABS 11-pt Reconfirmation Dose Response (96hr): IC50), 0.574 µM; in assay [2] it was over 50000 nM; in assay [6] it was 375 nM. Further, the IC50 was 521 nM in assay [7] (DD2, read-out: LDH ABS assay IC50); under 0.141 nM in assay [4]; 344 nM in the assay with P. falciparum Dd2 (96 h, Dd2, read-out: 96 h SYBR green ABS IC50). Further, the Emax in assay [5] (DD2, 11-pt dose response, 48hr, read-out: CDD P. falciparum Luciferase ABS 11-pt Reconfirmation Dose Response (48hr): Maximum inhibition (%)) was 99.6%; in assay [5] (DD2, 11-pt dose response, 96hr, read-out: CDD P. falciparum Luciferase ABS 11-pt Reconfirmation Dose Response (96hr): Maximum inhibition (%)) it was 99.5%; in the assay with P. falciparum Dd2 (DD2, Sybr Green I, 11-pt dose response, 96hr, read-out: CDD P. falciparum Sybr Green I ABS 11-pt Reconfirmation Dose Response (96hr): Maximum inhibition (%)) it was 98.9%. Further, in assay [5] (asexual blood stage, assay format not given), the “ABS IC50” value is “submicromolar”. For the same compound, the “Pbluc (EEF) IC50” value in assay [4] was “submicromolar”.

Turning to `O=C1C(O)=C([C@H]2CC[C@H](c3ccc(Cl)cc3)CC2)C(=O)c2ccccc21` [atovaquone], the “fold increase of IC50, DDD01061024 mutants vs wild-type” value in assay [7] came to 11 fold. In addition, the IC50 in assay [7] (DD2, read-out: IC50 against wild-type parasites) stood at 0.377 nM; in assay [7] (DD2, read-out: IC50 in DDD01061024 mutants) it was 4.19 nM.
